The assay addresses T1, prostaglandin E2 type 2 (EP2) receptors (Homo sapiens, UniProt P43116).
T1 construct: These full length receptors are used to prepare 293S cells expressing the EP1, EP2, EP3 and EP4 receptors; expressed in transfected cells; membranes
The experiment in a line: Assay for Binding to Prostaglandin E2 Receptors (3H-prostaglandin E2 displacement, membranes of transfected 293S cells). To be noted: concentration displacing 50% of specifically bound 3H-prostaglandin E2, 1 hour at 25° C.
T1 sequence (P43116 whole entry): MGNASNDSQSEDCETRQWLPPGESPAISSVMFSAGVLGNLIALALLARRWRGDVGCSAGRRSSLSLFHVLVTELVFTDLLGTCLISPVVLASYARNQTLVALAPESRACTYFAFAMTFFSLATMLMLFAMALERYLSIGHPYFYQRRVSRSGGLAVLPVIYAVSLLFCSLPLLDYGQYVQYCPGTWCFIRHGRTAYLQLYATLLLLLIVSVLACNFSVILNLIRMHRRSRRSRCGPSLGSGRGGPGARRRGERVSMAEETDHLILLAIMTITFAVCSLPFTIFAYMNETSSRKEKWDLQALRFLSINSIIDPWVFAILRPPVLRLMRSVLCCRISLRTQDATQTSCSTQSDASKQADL
The IC50 is the concentration at which inhibition is half-maximal. With `CCCNC(=O)N(CCCc1cccc(Cl)c1)CCCc1ccc(C(=O)O)s1` [Example 7d, 5-(3-(1-(3-(3-Chloro-Phenyl)-propyl)-3-propyl-ureido)-propyl)-thiophene-2-carboxylic acid], the IC50 was found to be 52 nM.

Take `O=C(O)c1ccc(CCCN(CCCc2cccc(Cl)c2)C(=O)Nc2cccc(Cl)c2Cl)s1` [Example 7f, 5-(3-(1-(3-(3-Chloro-phenyl)-propyl)-3-(2,3-dichloro-phenyl)-ureido)-propyl) thiophene-2-carboxylic acid]: the IC50 was found to be 344 nM.

With `O=C(O)c1ccc(CCCN(CCCc2cccc(Cl)c2)C(=O)Nc2cc(Cl)cc(Cl)c2)s1` [Example 7g, 5-(3-(1-(3-(3-Chloro-phenyl)-propyl)-3-(3,5-dichloro-phenyl)-ureido)-propyl)-thiophene-2-carboxylic acid], the IC50 came out at 412 nM.

As to `O=C(O)c1ccc(CCCN(CCCc2cccc(Cl)c2)C(=O)Nc2c(F)cccc2F)s1` [Example 7h, 5-(3-(1-(3-(3-Chloro-phenyl)-propyl)-3-(2,6-difluoro-phenyl)-ureido)-propyl)-thiophene-2-carboxylic acid], the IC50 turned out to be 172 nM.

`O=C(O)c1ccc(CCCN(CCCc2cccc(Cl)c2)C(=O)N2CCCC2)s1` [Example 8, 5-(3-((3-(3-Chloro-phenyl)-propyl)-(Pyrrolidine-1-carbonyl)-amino)-propyl)-thiophene-2-carboxylic acid] registered a half-maximal inhibitory concentration (IC50) of 71 nM.

As to `O=C(O)c1ccc(CCCN(CCCc2cccc(Cl)c2)C(=O)N2CCOCC2)s1` [Example 8a, 5-(3-((3-(3-Chloro-phenyl)-Propyl)-(morpholine-4-carbonyl)-amino)-propyl)-thiophene-2-carboxylic acid], the IC50 was 180 nM.

The compound `CC(C)OC(=O)N(CCCc1cccc(Cl)c1)CCCc1ccc(C(=O)O)s1` [Example 8b, 5-(3-((3-(3-Chloro-phenyl)-propyl)-isopropoxycarbonyl-amino)-propyl)-thiophene-2-carboxylic acid] came in with an IC50 of 266 nM.

Regarding `CCCCc1ccc(CN(Cc2cccc(CC(=O)O)c2)S(=O)(=O)c2ccccc2)cc1` [Example 9a, (3-((Benzenesulfonyl-(4-butyl-benzyl)-amino)-methyl)-phenyl)-acetic acid], the IC50 was determined as 84.5 nM.

Take `CCCCc1ccc(CN(Cc2cccc(CC(=O)O)c2)S(=O)(=O)c2cccs2)cc1` [Example 9b, (3-(((4-Butyl-benzyl)-(thiophene-2-sulfonyl)-amino)-methyl)-phenyl)-acetic acid]: the IC50 came out at 94.5 nM.

In turn, `CCCCc1ccc(CN(Cc2cccc(CC(=O)O)c2)S(=O)(=O)c2ccc(NC(C)=O)cc2)cc1` [Example 9c, (3-(((4-Acetylamino-benzenesulfonyl)-(4-butyl-benzyl)-amino)-methyl)-phenyl)-acetic acid] returned an IC50 of 490 nM.

On to `CCCCc1ccc(CN(Cc2cccc(CC(=O)O)c2)S(=O)(=O)c2cccc3nonc23)cc1` [Example 9d, (3-(((Benzo[1,2,5]oxadiazole-4-sulfonyl)-(4-butyl-benzyl)-amino)-methyl)-phenyl)-acetic acid], for which the IC50 worked out at 203 nM.

“(3-(((4-Butyl-benzyl)-(pyridine-3-sulfonyl)-amino)-methyl)-phenyl)-acetic acid [Example 9]” gave a concentration for half-maximal inhibition (IC50) of 17 nM.

The record behind these values is US20050203086A1, “Methods of treatment using an EP2 selective receptor agonist” (Pfizer Inc., priority 2004, published 2005).
